Reference: patent publication US20120059020A1, “PROPHYLACTIC OR THERAPEUTIC AGENT FOR PULMONARY FIBROSIS” (SHIZUOKA COFFEIN CO., LTD, priority 2009, published 2012)

Key:
[1] = system: mouse models with bleomycin-induced pulmonary fibrosis; test: In vivo effect on pulmonary fibrosis induced by bleomycin; design: species or system C57BL/6 mice
Description: The present inventors conducted a test using mouse models with pulmonary fibrosis induced by transtracheally administering bleomycin, for the purpose of studying the antifibrotic action of the propanedioic acid derivative of the present invention in vivo. This experimental model of pulmonary fibrosis is clinically similar to idiopathic pulmonary fibrosis in pathological observations such as increased inflammatory cells and the increased amount of hydroxyproline in an extracellular matrix-constituting collagen ingredient used as an index for fibrosis, and is widely used.
C57BL/6 mice (female, 12 week old, body weight: 20 to 23 g) were anesthetized by the intraperitoneal administration of pentobarbital. The trachea was incised, and bleomycin (NIPPON KAYAKU CO., LTD.) (1.5 mg/kg) dissolved in saline was transtracheally administered thereto. […]
20 days after bleomycin administration, a bronchoalveolar lavage fluid (BALF) was collected from each mouse, and a PAI-1 concentration (ng/mL) in the fluid was measured using an ELISA kit (Mouse PAI-1 ELISA kit, Innovative research Inc.). Subsequently, the amount of hydroxyproline was measured for pulmonary fibrosis evaluation. The amount of hydroxyproline in the lung tissue was measured as the amount in a lung tissue hydrolysate according to the method of Kivirikko et al. (Anal. Biochem. 19, 249-255 (1967)). […]

Solubility test in water = assay type: physicochemical
Description: Solubility test on a 2Na salt of a typical compound (1) (disodium salt of [5-[[6-[4-phenyl-6-(phenylmethoxy)-2-pyrimidinyl]-2-naphthalenyl]oxy]pentyl]propanedioic acid) used in the present invention in water is shown below.
Water of 20±2° C. was added to the 2Na salt of the compound (1), and the mixture was vigorously shaken for 30 seconds and left standing for 5 minutes. This operation was repeated until the 2Na salt of the compound (1) was completely dissolved. The final amount of water required for the dissolution was determined. The solubility of the 2Na salt of the compound (1) in water of 45±5° C. was determined by similar operation.

[2] = Stability test in aqueous solution (HPLC assay); assay type: physicochemical; conditions: for Purity: aqueous solution 1 g/100 mL, 35° C.
Description: Stability test on the 2Na salt of the compound (1) used in the present invention in an aqueous solution is shown below.
Injectable distilled water was added to 1 g of the 2Na salt of the compound (1) to prepare 100 mL of a sample solution. The sample solution was equally divided. One portion was shielded against light, and the other portion was unshielded. Each of them was stored at 35° C. for 11 days during which these sample solutions were assayed over time using high-performance liquid chromatography and examined for stability.
YMC-Pack ODS-A A-302 (YMC Co., Ltd.) was used as a column, and the column temperature was kept at a constant temperature around 40° C. A tetrahydrofuran/0.1% phosphoric acid (54:46) mixed solution was used as a mobile phase. A flow rate was adjusted such that the retention time of the compound (1) was approximately 7 minutes. An ultraviolet absorptiometer (measurement wavelength: 265 nm) was used as a detector.

- Amount of solvent required for dissolving 1 g (Solubility test in water; Water (20 ± 2° C.)): 33 mL
- Amount of solvent required for dissolving 1 g (Solubility test in water; Water (45 ± 5° C.)): 1.2 mL
- Solubility in water (Solubility test in water; water): excellent in solubility in water
- Stability of aqueous solution ([2]; 35° C. for 11 days, light-shielded or unshielded): stable
- Purity ([2]; light-shielded, 0 days elapsed): 99.8%
- Purity ([2]; light-shielded, 1 day elapsed): 99.8%
- Purity ([2]; light-shielded, 6 days elapsed): 99.8%
- Purity ([2]; light-shielded, 11 days elapsed): 99.8%
- Purity ([2]; unshielded, 0 days elapsed): 99.8%
- Purity ([2]; unshielded, 1 day elapsed): 99.8%
- Purity ([2]; unshielded, 6 days elapsed): 99.7%
- Purity ([2]; unshielded, 11 days elapsed): 99.7%
Structure (SMILES): O=C([O-])C(CCCCCOc1ccc2cc(-c3nc(OCc4ccccc4)cc(-c4ccccc4)n3)ccc2c1)C(=O)[O-].[Na+].[Na+] [2Na salt of compound (1), disodium salt of [5-[[6-[4-phenyl-6-(phenylmethoxy)-2-pyrimidinyl]-2-naphthalenyl]oxy]pentyl]propanedioic acid]
- Fibrotic process of the lung induced by bleomycin ([1]; 1000 ppm in drinking water, free feeding, mice, listed as 2Na salt of the compound (1)): remarkable effectiveness that suppressed the fibrotic process of the lung
- Amount of hydroxyproline in lung tissue compared with the control group ([1]; group 2 (late stage): 1000 ppm in drinking water from 8 to 20 days after bleomycin (fibrotic stage), approx. 20 mg/kg/day, measured 20 days after bleomycin): significantly decreased
